Patent US20200397795A1, “PROPHYLACTIC TREATMENT OF VENOUS THROMBOEMBOLISM” (JANSSEN PHARMACEUTICALS, INC., priority 2019, published 2020)
Where “and” joins values, the source holds several entries; their conditions need not be identical. Identical values can stand only once.

Columns and labels:
[1] = system: bleeding events in MAGELLAN subpopulation; assay: Retrospective analysis of MAGELLAN subpopulation: safety (bleeding); type: in vivo
Text: Using key exclusion criteria from Study 2: MARINER to exclude subjects with a higher risk of bleeding, a subpopulation of Study 1: MAGELLAN was retrospectively analyzed to re-evaluate benefit-risk in this subpopulation, which included efficacy endpoints of symptomatic VTE and VTE-related death and safety endpoints of major bleeding events. The key exclusion criteria from Study 2: MARINER that were retrospectively applied to the Study 1: MAGELLAN population for this analysis included: active gastroduodenal ulcer within 3 months of randomization/currently symptomatic; any bleeding within 3 months prior to randomization or during index hospitalization; active cancer at randomization; medical history of severe bronchiectasis/pulmonary cavitation; or dual antiplatelet therapy at baseline. Subjects that met one or more of these criteria prior to or at randomization using standardized MedDRA queries or preferred terms of MedDRA version 13.1 based on data entered into the case report forms in the original MAGELLAN database were excluded from the subpopulation analysis.
The MAGELLAN study (Study 1) randomized 8,101 patients from 562 sites in 52 countries and the safety population of patients that received at least one dose of study medication was 7,998 patients. The five key risk factors for major bleeding events in MAGELLAN were identified using study data forms as described herein. With the retrospective use of these risk factors, 1,551 patients were excluded from MAGELLAN and the remaining 6,447 patients, approximately 80% of MAGELLAN, represented the subpopulation. Patients in both treatment groups had no differences in baseline characteristics, and had similar medical histories, with at least 99% of patients having complete immobility or decreased mobility and median total number of days in hospital of 10.

[2] = system: bleeding events in patients hospitalized for acute medical illness; assay: MAGELLAN (Study 1): safety, bleeding events and adverse events; type: in vivo, human; conditions: for Fatal bleeding events, number: Day 1 to 10; for Treatment-emergent fatal bleeding events, number: Day 1 to 35; for Pulmonary embolism confirmed (deaths), number: entire study duration; for Investigator-reported deaths, incidence / VTE-related deaths, incidence: entire study duration (Day 1 to 90); for Bleeding events that required blood transfusions of 2 units / Bleeding events that resulted in a fall of Hb to ≥2 g/dL / Investigator-reported TEAEs leading to permanent discontinuation of study drug: in vivo
Text: The safety component of Criteria for Evaluation was the primary safety endpoint of incidence of the composite of treatment-emergent major bleeding events and non-major clinically relevant bleeding events observed during treatment and not later than 2 days after the last intake of double-blind study drug.
The primary safety outcome of the study was the treatment-emergent clinically relevant bleeding events, which were a composite of treatment-emergent adjudicated major bleeding events and clinically relevant non-major bleeding events.
The safety analysis was performed on 7998 randomized subjects who received at least one dose of study drug, rivaroxaban (3997 subjects) or enoxaparin (4001 subjects).
The primary safety outcome of the study was the assessment of clinically relevant bleeding events, which are a composite of treatment-emergent adjudicated major bleeding events and clinically relevant non-major bleeding events.

[3] = post-discharge phase, entire population and subpopulation
[4] = rivaroxaban-enoxaparin phase (Day 1 to 10)
[5] = rivaroxaban-enoxaparin/placebo phase (Day 1 to 35)
[6] = rivaroxaban-placebo phase (Day 10 to 35)

Row | Molecule | Fatal bleeds, number [1, 3] | Fatal bleeds, number ([1]; subpopulation, Day 10) | Fatal bleeding events, number ([2]; entire population) [cases] | Treatment-emergent fatal bleeding events, number [2] [subjects] | Major bleeding events, incidence ([2]; Day 1 to Day 10) [%] | Investigator-reported SAEs, incidence ([2]; Day 1 to Day 35) [%] | Investigator-reported TEAEs, incidence ([2]; Day 1 to Day 35) [%] | Investigator-reported drug-related TEAEs, incidence ([2]; Day 1 to Day 35) [%] | Major bleeding events, incidence ([2]; Day 1 to Day 35) [%] | Clinically relevant non-major bleeding events, incidence ([2]; all phases of the study) [%] | Major bleeding events, incidence ([2]; all phases of the study) [%] | Minimal bleeding events, incidence ([2]; all phases of the study) [%] | Pulmonary embolism confirmed (deaths), number [2] [subjects] | Investigator-reported deaths, incidence [2] [%] | VTE-related deaths, incidence [2] [%] | Major bleeding events, incidence ([2]; follow-up phase) [%] | Bleeding events that required blood transfusions of 2 units [2] [%] | Bleeding events that resulted in a fall of Hb to ≥2 g/dL [2] [%] | Investigator-reported TEAEs leading to permanent discontinuation of study drug [2] [%] | Clinically relevant bleeding events, incidence [2, 4] [%] | other results
1 | O=C(NC[C@H]1CN(c2ccc(N3CCOCC3=O)cc2)C(=O)O1)c1ccc(Cl)s1 [Rivaroxaban, 5-chloro-N-({(5S)-2-oxo-3-[4-(3-oxo-4-morpholinyl)phenyl]-1,3,oxazolidin-5-yl}methyl)-2-thiophenecarboxamide] | 2 | 1 | 5 | 7 | 0.6 | 2.0 | 12.5 | 6.9 | 1.1 | 4.0 | 1.6 | 9.6 | 2 | 7.0 | 1.0 | 0.6 | 0.6 | 0.8 | 3.1 | 2.8 | Major bleeding, relative risk ([1]; human, in vivo, 10 day): 1.19; Clinically relevant bleeding (major and NMCR), incidence ([1]; human, in vivo, 35 day): 3.5%; Clinically relevant bleeding, RR vs enoxaparin ([1]; human, in vivo, 35 day): 2.35; Major bleeding, RR vs enoxaparin-placebo ([1]; human, in vivo, 35 day): 1.48; Major bleeding, incidence ([1]; human, in vivo, 35 day): 0.68%; Fatal bleeds, incidence ([1]; subpopulation, Day 10): less than 0.1%; Fatal bleeds, incidence ([1]; subpopulation, Day 35): less than 0.1%; Intracranial bleeding site (critical site bleeding), incidence ([2]; Day 1 to Day 35): 0.1%; Major bleeding events, incidence ([2]; Day 10 to Day 35): 0.5%; Major bleeding, RR vs enoxaparin-placebo ([2]; entire MAGELLAN population, through Day 35): 2.87; Fatal bleeds, incidence ([2]; entire population, Day 10): 0.1%; Major bleeding, relative risk ([2]; entire population, Day 10): 2.18; Fatal bleeds, incidence ([2]; entire population, Day 35): 0.2%; Relative risk, clinically relevant bleeding [2, 4]: 2.272; Clinically relevant bleeding events, incidence [2, 5]: 4.1%; Relative risk, clinically relevant bleeding [2, 5]: 2.46 and 2.455; Clinically relevant bleeding events, incidence [2, 6]: 1.4%; Relative risk, clinically relevant bleeding [2, 6]: 2.958
2 | Enoxaparin | 0 | 1 | 1 | 1 | 0.3 | 0.8 | 8.5 | 4.2 | 0.4 | 2.1 | 0.9 | 8.2 | 1 | 6.5 | 1.2 | 0.6 | 0.2 | 0.2 | 1.5 | 1.2 | Clinically relevant bleeding (major and NMCR), incidence ([1]; subpopulation, Day 35): 1.5%; Major bleeding, incidence ([1]; subpopulation, through Day 35): 0.47%; Pulmonary bleeding site (critical site bleeding), incidence ([2]; Day 1 to Day 35): 0%; Retroperitoneal bleeding site (critical site bleeding), incidence ([2]; Day 1 to Day 35): 0%; Clinically relevant bleeding events, incidence [2, 5]: 1.7%; Clinically relevant bleeding events, incidence [2, 6]: 0.5%
